The subject of the data set is Anopheles stephensi. The experiment in a line: Anopheles stephensi treated well plate contact test: knockdown and mortality. It is filed as in vivo. In outline:
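Well surfaces coated with ethanol solution of compound at a defined concentration, alone or with 2 ppm TFNA-AM, then dried. Five non-blood-fed 2–5-day-old adult females per well, fed 10% sucrose; knockdown scored at 1 hour, mortality at 24 and 48 hours, replicate means reported.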

Where [1] appears, read: Anopheles stephensi, test compound 0.2 ppm, without TFNA-AM, after 24 hours, read-out: mortality % 24, without TFNA-AM.
[2] abbreviates: Anopheles stephensi, test compound 0.2 ppm, without TFNA-AM, after 48 hours, read-out: mortality % 48, without TFNA-AM.
Setting [3] is: Anopheles stephensi, test compound 0.2 ppm, without TFNA-AM, knockdown after 1 hour, read-out: Knock Down, without TFNA-AM.
The mark [4] stands for this setting: Anopheles stephensi, test compound 2 ppm, without TFNA-AM, after 24 hours, read-out: mortality % 24, without TFNA-AM.
The mark [5] stands for this setting: Anopheles stephensi, test compound 2 ppm, without TFNA-AM, after 48 hours, read-out: mortality % 48, without TFNA-AM.
[6] abbreviates: Anopheles stephensi, test compound 2 ppm, without TFNA-AM, knockdown after 1 hour, read-out: Knock Down, without TFNA-AM.
Where [7] appears, read: Anopheles stephensi, test compound 20 ppm, without TFNA-AM, after 24 hours, read-out: mortality % 24, without TFNA-AM.
[8] abbreviates: Anopheles stephensi, test compound 20 ppm, without TFNA-AM, after 48 hours, read-out: mortality % 48, without TFNA-AM.
Where [9] appears, read: Anopheles stephensi, test compound 20 ppm, without TFNA-AM, knockdown after 1 hour, read-out: Knock Down, without TFNA-AM.
The mark [10] stands for this setting: Anopheles stephensi, test compound 200 ppm, without TFNA-AM, after 24 hours, read-out: mortality % 24, without TFNA-AM.
Setting [11] is: Anopheles stephensi, test compound 200 ppm, without TFNA-AM, after 48 hours, read-out: mortality % 48, without TFNA-AM.
[12] abbreviates: Anopheles stephensi, test compound 200 ppm, without TFNA-AM, knockdown after 1 hour, adult females, read-out: Knock Down, without TFNA-AM.
[13] abbreviates: test compound 0.2 ppm plus 2 ppm TFNA-AM, after 24 hours.
Setting [14] is: test compound 0.2 ppm plus 2 ppm TFNA-AM, after 48 hours.
The mark [15] stands for this setting: test compound 0.2 ppm plus 2 ppm TFNA-AM, knockdown after 1 hour.
Setting [16] is: test compound 2 ppm plus 2 ppm TFNA-AM, after 48 hours.
Setting [17] is: test compound 2 ppm plus 2 ppm TFNA-AM, knockdown after 1 hour.
Where [18] appears, read: test compound 20 ppm plus 2 ppm TFNA-AM, after 24 hours.
[19] abbreviates: test compound 20 ppm plus 2 ppm TFNA-AM, after 48 hours.
The mark [20] stands for this setting: test compound 20 ppm plus 2 ppm TFNA-AM, knockdown after 1 hour.
Setting [21] is: test compound 200 ppm plus 2 ppm TFNA-AM, after 24 hours.
The mark [22] stands for this setting: test compound 200 ppm plus 2 ppm TFNA-AM, after 48 hours.
Where [23] appears, read: test compound 200 ppm plus 2 ppm TFNA-AM, knockdown after 1 hour.
Where [24] appears, read: test compound 2 ppm plus 2 ppm TFNA-AM, after 24 hours.
The mark [25] stands for this setting: Anopheles stephensi, 24 h, read-out: mortality % 24, without TFNA-AM.
Where [26] appears, read: Anopheles stephensi, 48 h, read-out: mortality % 48, without TFNA-AM.

We go through six compounds from patent US20260206755A1, “COMPOUNDS AND COMPOSITIONS HAVING KNOCK-DOWN OR BLOOD FEED INHIBITION ACTIVITY AGAINST INSECT PESTS” (priority 2017, published 2026).

Where two headings read alike, the source gives them in different places.

One may read the mortality as the percentage killed. For the compound `CO/C=C(/C(=O)OC)c1ccccc1COc1cc(C(F)(F)F)nc(OC(C)C)n1` [Fluacrypyrim], the mortality at 0.2 ppm under setting [1] amounted to 0% and the mortality at 0.2 ppm under setting [2] worked out at 0%. Also, the pest or weed control at 0.2 ppm under setting [3] is 0%. Besides, the mortality at 2 ppm is 0% under setting [4] and 0% under setting [5]. Under setting [6], the pest or weed control at 2 ppm stood at 0%. For the same compound, the mortality at 20 ppm was 0% under setting [7] and 0% under setting [8]. For the same compound, the pest or weed control at 20 ppm under setting [9] worked out at 0%. In addition, the mortality at 200 ppm was 20% under setting [10] and 80% under setting [11]. Further, the pest or weed control at 200 ppm under setting [12] was 0%. Besides, the “mortality % 24, with TFNA-AM” value under setting [13] was 60%; the “mortality % 24, with TFNA-AM” value under setting [18] was found to be 100%; the “mortality % 24, with TFNA-AM” value under setting [21] was 100%. Further, the “mortality % 48, with TFNA-AM” value reads like this: under setting [14], 40%; under setting [16], 100%; under setting [19], 100%; under setting [22], 100%. In addition, the “Knock Down, with TFNA-AM” value runs as follows: under setting [15], 100%; under setting [17], 100%; under setting [20], 100%; under setting [23], 100%.
Turning to `O=[N+]([O-])c1cc(C(F)(F)F)c(Cl)c([N+](=O)[O-])c1Nc1ncc(C(F)(F)F)cc1Cl` [Fluazinam], the mortality at 0.2 ppm under setting [1] was found to be 0% and the mortality at 0.2 ppm under setting [2] was determined as 0%. Also, the pest or weed control at 0.2 ppm under setting [3] stood at 0%. The mortality at 2 ppm by setting is: under setting [4], 0%; under setting [5], 0%. Also, under setting [6], the pest or weed control at 2 ppm was 0%. The mortality at 20 ppm is, setting by setting: under setting [7], 70%; under setting [8], 80%. For the same compound, under setting [9], the pest or weed control at 20 ppm amounted to 20%. For the same compound, the mortality at 200 ppm under setting [10] was determined as 90% and the mortality at 200 ppm under setting [11] was found to be 90%. Also, the pest or weed control at 200 ppm under setting [12] came to 20%. Besides, the “mortality % 24, with TFNA-AM” value runs as follows: under setting [13], 30%; under setting [24], 30%; under setting [18], 100%; under setting [21], 100%. Besides, the “mortality % 48, with TFNA-AM” value is, setting by setting: under setting [14], 20%; under setting [16], 20%; under setting [19], 100%; under setting [22], 100%. Moreover, the “Knock Down, with TFNA-AM” value reads like this: under setting [15], 100%; under setting [17], 100%; under setting [20], 100%; under setting [23], 100%.
`Cc1cc(C(F)(C(F)(F)F)C(F)(F)F)ccc1NC(=O)c1cccc(I)c1C(=O)NC(C)(C)CS(C)(=O)=O` [Flubendiamide]: the mortality at 0.2 ppm is, setting by setting: under setting [1], 0%; under setting [2], 0%. For the same compound, the pest or weed control at 0.2 ppm under setting [3] is 0%. For the same compound, the mortality at 2 ppm by setting is: under setting [4], 0%; under setting [5], 0%. The pest or weed control at 2 ppm under setting [6] was 0%. The mortality at 20 ppm stood at 0% under setting [7] and 0% under setting [8]. Further, under setting [9], the pest or weed control at 20 ppm came to 0%. The mortality at 200 ppm reads like this: under setting [10], 0%; under setting [11], 0%. For the same compound, the pest or weed control at 200 ppm under setting [12] was 0%. The “mortality % 24, with TFNA-AM” value was determined as 80% under setting [13], 80% under setting [24], 80% under setting [18] and 60% under setting [21]. For the same compound, the “mortality % 48, with TFNA-AM” value reads like this: under setting [14], 40%; under setting [16], 40%; under setting [19], 40%; under setting [22], 40%. In addition, the “Knock Down, with TFNA-AM” value by setting is: under setting [15], 100%; under setting [17], 100%; under setting [20], 100%; under setting [23], 100%.
For the compound `O=C1C=C(N(Cc2ccc(Cl)nc2)CC(F)F)CO1` [Flupyradifurone], the “mortality % 24, with TFNA-AM” value under setting [13] came to 10%; the “mortality % 24, with TFNA-AM” value under setting [24] is 20%; the “mortality % 24, with TFNA-AM” value under setting [18] was 50%; the “mortality % 24, with TFNA-AM” value under setting [21] came out at 70%. Further, the “mortality % 48, with TFNA-AM” value worked out at 0% under setting [14], 20% under setting [16], 60% under setting [19] and 90% under setting [22]. The “Knock Down, with TFNA-AM” value reads like this: under setting [15], 100%; under setting [17], 100%; under setting [20], 100%; under setting [23], 100%. The “mortality % 24, without TFNA-AM” value is 0% (test compound 0.2 ppm, without TFNA-AM, after 24 hours); 0% (test compound 2 ppm, without TFNA-AM, after 24 hours); 0% (test compound 20 ppm, without TFNA-AM, after 24 hours); 20% (test compound 200 ppm, without TFNA-AM, after 24 hours). Also, the “mortality % 48, without TFNA-AM” value reads like this: (test compound 0.2 ppm, without TFNA-AM, after 48 hours) 0%; (test compound 2 ppm, without TFNA-AM, after 48 hours) 0%; (test compound 20 ppm, without TFNA-AM, after 48 hours) 10%; (test compound 200 ppm, without TFNA-AM, after 48 hours) 30%. Also, the “Knock Down, without TFNA-AM” value is, setting by setting: (test compound 0.2 ppm, without TFNA-AM, knockdown after 1 hour) 0%; (test compound 2 ppm, without TFNA-AM, knockdown after 1 hour) 0%; (test compound 20 ppm, without TFNA-AM, knockdown after 1 hour) 0%; (test compound 200 ppm, without TFNA-AM, knockdown after 1 hour, adult females) 0%.
As to `O=[N+]([O-])NC1=NCCN1Cc1ccc(Cl)nc1` [Imidacloprid], the mortality at 0.2 ppm was found to be 0% under setting [1] and 0% under setting [2]. Also, the pest or weed control at 0.2 ppm under setting [3] is 0%. Further, the mortality at 2 ppm by setting is: under setting [4], 20%; under setting [5], 20%. In addition, the pest or weed control at 2 ppm under setting [6] is 0%. In addition, the mortality at 20 ppm is, setting by setting: under setting [7], 20%; under setting [8], 60%. Besides, under setting [9], the pest or weed control at 20 ppm worked out at 0%. For the same compound, the mortality at 200 ppm came out at 40% under setting [10] and 60% under setting [11]. Further, the pest or weed control at 200 ppm under setting [12] is 40%. In addition, the “mortality % 48, with TFNA-AM” value runs as follows: under setting [14], 0%; under setting [16], 100%; under setting [19], 100%; under setting [22], 100%. Further, the “Knock Down, with TFNA-AM” value is 100% under setting [15], 100% under setting [17], 100% under setting [20] and 100% under setting [23]. Moreover, the “mortality % 24, with TFNA-AM” value is 100% under setting [24], 100% under setting [18] and 100% under setting [21].
Take `CCOC(=O)CC(SP(=S)(OC)OC)C(=O)OCC` (stereo not shown) [Malathion]: the mortality at 0.02 ppm reads like this: under setting [25], 0%; under setting [26], 0%. The mortality at 0.2 ppm reads like this: under setting [25], 0%; under setting [26], 0%. Besides, the mortality at 2 ppm reads like this: under setting [25], 100%; under setting [26], 100%. In addition, the mortality at 20 ppm runs as follows: under setting [25], 100%; under setting [26], 100%. Besides, where the note is “Anopheles stephensi, test compound 0.02 ppm, without TFNA-AM, knockdown after 1 hour, read-out: Knock Down, without TFNA-AM”, the pest or weed control at 0.02 ppm worked out at 20%. Also, the pest or weed control at 0.2 ppm under setting [3] came out at 20%. Besides, under setting [6], the pest or weed control at 2 ppm turned out to be 40%. The pest or weed control at 20 ppm under setting [9] was determined as 40%. Besides, the “mortality % 24, with TFNA-AM” value (test compound 0.02 ppm plus 2 ppm TFNA-AM, after 24 hours) was 0%; the “mortality % 24, with TFNA-AM” value under setting [13] came out at 0%; the “mortality % 24, with TFNA-AM” value under setting [24] worked out at 100%; the “mortality % 24, with TFNA-AM” value under setting [18] is reported as 100%. Besides, the “mortality % 48, with TFNA-AM” value by setting is: (test compound 0.02 ppm plus 2 ppm TFNA-AM, after 48 hours) 0%; under setting [14], 0%; under setting [16], 100%; under setting [19], 100%. In addition, the “Knock Down, with TFNA-AM” value reads like this: (test compound 0.02 ppm plus 2 ppm TFNA-AM, knockdown after 1 hour) 100%; under setting [15], 100%; under setting [17], 100%; under setting [20], 100%.
